From article PMC8286840, “Identifying SARS-CoV-2 antiviral compounds by screening for small molecule inhibitors of Nsp3 papain-like protease” (Biochemical Journal, 2021)
Counter-ions that a name gives are not always drawn. Like-named read-outs stand apart in the source and are kept apart here. Where a SMILES comes first, the peptide text is derived from it.

Legend:
[1] = target: T1, SARS-CoV-2 PLpro (nsp3 1564–1878) (Severe acute respiratory syndrome coronavirus 2, UniProt P0DTD1); assay: biochemical; parameters: FRET-quenched peptide (Pro3) cleavage by PLpro, 10 min pre-incubation, slope over 20 min, normalised to no-compound control; conditions: low concentration screen, read-out: % of control remaining
[2] = target: T1, SARS-CoV-2 PLpro (nsp3 1564–1878); assay: biochemical; parameters: FRET-quenched peptide (Pro3) cleavage by PLpro, 10 min pre-incubation, slope over 20 min, normalised to no-compound control; conditions: high concentration screen, read-out: % of control remaining

## CCCCCCn1c(O)c(N=NC(=O)c2ccccc2)c2ccccc21 [MDA 19]
[1]; Well no.=7099
  remaining activity at 1.25 µM: 103%
[2]; Well no.=7099
  remaining activity at 3.75 µM: 103%

## Cc1oncc1C(=O)Nc1ccc(C(F)(F)F)cc1 [Leflunomide]
[1]; Well no.=787
  remaining activity at 1.25 µM: 104%
[1]; Well no.=2268
  remaining activity at 1.25 µM: 96.5%
[2]; Well no.=787
  remaining activity at 3.75 µM: 105%
[2]; Well no.=2268
  remaining activity at 3.75 µM: 104%

## CC/C(=C(\c1ccccc1)c1ccc(OCCN(C)C)cc1)c1ccccc1 [Tamoxifen]
[1]; Well no.=2240
  remaining activity at 1.25 µM: 90.7%
[2]; Well no.=2240
  remaining activity at 3.75 µM: 93.3%

## Cc1cc2cc3c(C)cc(=O)oc3c(C)c2o1 [4,5',8-Trimethylpsoralen]
[1]; Well no.=3420
  remaining activity at 1.25 µM: 99.6%
[2]; Well no.=3420
  remaining activity at 3.75 µM: 95.9%

## O=C(/C=C/c1cccc(S(=O)(=O)Nc2ccccc2)c1)NO [Belinostat (PXD101)]
[1]; Well no.=5009
  remaining activity at 1.25 µM: 98.9%
[2]; Well no.=5009
  remaining activity at 3.75 µM: 91.9%

## NCC(=O)NCC(=O)O [Glycylglycine] (H-Gly-Gly-OH)
[1]; Well no.=6641
  remaining activity at 1.25 µM: 100%
[2]; Well no.=6641
  remaining activity at 3.75 µM: 102%

## CCNC(=O)Nc1ccc(-c2nc3c(c(N4CCOC[C@@H]4C)n2)CCN(C2COC2)C3)cc1 [GDC-0349]
[1]; Well no.=5220
  remaining activity at 1.25 µM: 97.8%
[2]; Well no.=5220
  remaining activity at 3.75 µM: 95.1%

## Cn1c(=O)c2c(ncn2CC(O)CO)n(C)c1=O (stereo not shown) [Dyphylline]
[1]; Well no.=8092
  remaining activity at 1.25 µM: 93.8%
[2]; Well no.=8092
  remaining activity at 3.75 µM: 95.3%

## Cc1ccc(NC(=O)CCCCCC(=O)Nc2ccccc2N)cc1 [Pimelic Diphenylamide 106]
[1]; Well no.=5991
  remaining activity at 1.25 µM: 101%
[2]; Well no.=5991
  remaining activity at 3.75 µM: 99.4%

## Clc1ccc(Nc2nc3ccccc3c3nc(C4CCCCC4)[nH]c23)cc1Cl [LUF6000]
[1]; Well no.=8661
  remaining activity at 1.25 µM: 93.9%
[2]; Well no.=8661
  remaining activity at 3.75 µM: 93.1%

## CCn1c2ccccc2c2cc(Nc3ccnc(NCCCN4CCOCC4)n3)ccc21 [EHop-016]
[1]; Well no.=6234
  remaining activity at 1.25 µM: 98.3%
[2]; Well no.=6234
  remaining activity at 3.75 µM: 97.9%

## C/C=C1/CN2CC[C@]34C(=C(C=O)[C@H]1C[C@H]23)Nc1ccccc14 [Norfluorocurarine]
[1]; Well no.=3165
  remaining activity at 1.25 µM: 95.2%
[2]; Well no.=3165
  remaining activity at 3.75 µM: 97.4%

## COc1ccccc1N1CCN(CCCCN2C(=O)c3ccccc3C2=O)CC1 [NAN-190 hydrobromide]
[1]; Well no.=1141
  remaining activity at 1.25 µM: 97%
[2]; Well no.=1141
  remaining activity at 3.75 µM: 99.5%

## N[C@@H](Cc1ccc(O)c(I)c1)C(=O)O [H-Tyr(3-I)-OH]
[1]; Well no.=7019
  remaining activity at 1.25 µM: 99.7%
[2]; Well no.=7019
  remaining activity at 3.75 µM: 99.6%

## OCc1cnc[nH]1 [4-Imidazolemethanol hydrochloride]
[1]; Well no.=608
  remaining activity at 1.25 µM: 97.2%
[2]; Well no.=608
  remaining activity at 3.75 µM: 96.7%

## C[C@@H]1OC(=O)[C@H]2C[C@H]3CCCC[C@@H]3[C@@H](/C=C/[C@H]3CCC[C@H](C)N3C)[C@@H]12 [(+)-Himbacine]
[1]; Well no.=706
  remaining activity at 1.25 µM: 99.2%
[2]; Well no.=706
  remaining activity at 3.75 µM: 98.4%

## OC[C@H]1O[C@@H](n2cnc3c(NC4CCCCC4)ncnc32)[C@H](O)[C@@H]1O [N6-Cyclohexyladenosine]
[1]; Well no.=435
  remaining activity at 1.25 µM: 98.1%
[1]; Well no.=7053
  remaining activity at 1.25 µM: 96.4%
[1]; Well no.=7952
  remaining activity at 1.25 µM: 92%
[1]; Well no.=8083
  remaining activity at 1.25 µM: 106%
[2]; Well no.=435
  remaining activity at 3.75 µM: 100%
[2]; Well no.=7053
  remaining activity at 3.75 µM: 95.5%
[2]; Well no.=7952
  remaining activity at 3.75 µM: 92.4%
[2]; Well no.=8083
  remaining activity at 3.75 µM: 105%

## CC(=O)OCC1=C(C(=O)O)N2C(=O)[C@@H](N)[C@H]2SC1 [7-Aminocephalosporanic acid]
[1]; Well no.=5286
  remaining activity at 1.25 µM: 98.5%
[2]; Well no.=5286
  remaining activity at 3.75 µM: 96%

## CCN(CC)C(=O)c1ccc(Nc2nc(OCC3CCCCC3)c3[nH]cnc3n2)cc1 [Cdk2 Inhibitor IV, NU6140]
[1]; Well no.=2418
  remaining activity at 1.25 µM: 100%
[2]; Well no.=2418
  remaining activity at 3.75 µM: 94.5%

## C/C(=N\NC(=O)C(NC(=O)c1ccccc1)c1n[nH]c(=O)c2ccccc12)c1cccc(Br)c1 (stereo not shown) [AC-55541]
[1]; Well no.=6997
  remaining activity at 1.25 µM: 106%
[2]; Well no.=6997
  remaining activity at 3.75 µM: 106%

## CCCCC[C@@H](/C=C/C=C\C/C=C\C/C=C\CCCC(=O)O)OO [15(S)-HPETE]
[1]; Well no.=4331
  remaining activity at 1.25 µM: 99.3%
[2]; Well no.=4331
  remaining activity at 3.75 µM: 98.7%

## O=C(c1ccccc1)c1ccc2nc(NC(=O)c3csc(C4CCN(c5ncnc6ccsc56)CC4)n3)[nH]c2c1 [SC75741]
[1]; Well no.=6922
  remaining activity at 1.25 µM: 100%
[2]; Well no.=6922
  remaining activity at 3.75 µM: 101%
